The values that follow come from paper PMC5218480 (PLoS ONE, 2017).

This experiment concerns MV-4-11 cells. The experiment in a line: Gene expression microarray analysis (Affymetrix PrimeView) and GSEA. It counts as cell-based, human. More on the design: RFU PODN (11730768_x_at) / Fold change /veh PODN (11730768_x_at) / RFU LINC00158 (11744669_a_at) / Fold change /veh LINC00158 (11744669_a_at) / RFU DUSP10 (11751237_a_at) / Fold change /veh DUSP10 (11751237_a_at) / RFU ID3 (11757404_x_at) / Fold change /veh ID3 (11757404_x_at) / RFU PLEKHG5 (11737974_s_at) / Fold change /veh PLEKHG5 (11737974_s_at) / RFU LRRC4B (11730491_at) / Fold change /veh LRRC4B (11730491_at) / RFU GIMAP4 (11747438_a_at) / Fold change /veh GIMAP4 (11747438_a_at) / RFU KRT8 (11758183_x_at) / Fold change /veh KRT8 (11758183_x_at) / RFU CNN1 (11734310_a_at) / Fold change /veh CNN1 (11734310_a_at) / RFU VPS37D (11726825_at) / Fold change /veh VPS37D (11726825_at) / RFU C10orf10 (11716522_x_at) / Fold change /veh C10orf10 (11716522_x_at) / RFU KIR2DL2 /// KIR2DL4 /// KIR2DL5A /// KIR2DL5B /// KIR2DS1 /// KIR2DS2 /// KIR2DS3 /// KIR2DS4 /// KIR3DL3 /// KIR3DL3 /// KIR3DS1 (11738374_at) / Fold change /veh KIR2DL2 /// KIR2DL4 /// KIR2DL5A /// KIR2DL5B /// KIR2DS1 /// KIR2DS2 /// KIR2DS3 /// KIR2DS4 /// KIR3DL3 /// KIR3DL3 /// KIR3DS1 (11738374_at) / RFU C1QL1 (11718748_at) / Fold change /veh C1QL1 (11718748_at) / RFU TMPRSS4 (11747572_a_at) / Fold change /veh TMPRSS4 (11747572_a_at) / RFU HAMP (11756126_x_at) / Fold change /veh HAMP (11756126_x_at) / RFU RNFT2 (11725882_a_at) / Fold change /veh RNFT2 (11725882_a_at) / RFU NR4A2 (11747474_a_at) / Fold change /veh NR4A2 (11747474_a_at) / RFU ABCC12 (11746883_a_at) / Fold change /veh ABCC12 (11746883_a_at) / RFU TMEM136 (11760407_x_at) / Fold change /veh TMEM136 (11760407_x_at) / RFU CLDN22 /// WWC2 (11732394_at) / Fold change /veh CLDN22 /// WWC2 (11732394_at) / RFU HLA-DPB1 (11760878_x_at) / Fold change /veh HLA-DPB1 (11760878_x_at) / RFU SPINT1 (11716480_a_at) / Fold change /veh SPINT1 (11716480_a_at) / RFU GAP43 (11754022_s_at) / Fold change /veh GAP43 (11754022_s_at) / RFU A4GNT (11735810_at) / Fold change /veh A4GNT (11735810_at) / RFU PRB3 (11715151_x_at) / Fold change /veh PRB3 (11715151_x_at) / RFU TUBB4B (11761932_at) / Fold change /veh TUBB4B (11761932_at) / RFU CAPN14 (11732068_a_at) / Fold change /veh CAPN14 (11732068_a_at) / RFU TMCC2 (11721928_a_at) / Fold change /veh TMCC2 (11721928_a_at) / RFU IRGQ (11745062_a_at) / Fold change /veh IRGQ (11745062_a_at) / RFU FAM174B (11720279_a_at) / Fold change /veh FAM174B (11720279_a_at) / RFU TMPRSS4 (11748680_a_at) / Fold change /veh TMPRSS4 (11748680_a_at) / RFU FAM212B (11763350_a_at) / Fold change /veh FAM212B (11763350_a_at) / RFU PLEKHG5 (11743358_a_at) / Fold change /veh PLEKHG5 (11743358_a_at) / RFU ZSCAN30 (11745921_a_at) / Fold change /veh ZSCAN30 (11745921_a_at) / RFU CMKLR1 (11741424_a_at) / Fold change /veh CMKLR1 (11741424_a_at) / RFU LOC101060620 /// MAPK8IP1 (11723275_at) / Fold change /veh LOC101060620 /// MAPK8IP1 (11723275_at) / RFU SPTSSB (11747773_x_at) / Fold change /veh SPTSSB (11747773_x_at) / RFU PRSS12 (11739890_at) / Fold change /veh PRSS12 (11739890_at) / RFU BIN1 (11741810_x_at) / Fold change /veh BIN1 (11741810_x_at) / RFU WNT11 (11732464_a_at) / Fold change /veh WNT11 (11732464_a_at) / RFU C10orf10 (11716521_a_at) / Fold change /veh C10orf10 (11716521_a_at) / RFU C5orf56 (11738089_at) / Fold change /veh C5orf56 (11738089_at) / RFU CYB561 (11721691_x_at) / Fold change /veh CYB561 (11721691_x_at) / RFU ANKRD19P (11752326_a_at) / Fold change /veh ANKRD19P (11752326_a_at) / RFU OR2T12 /// OR2T33 /// OR2T8 (11738714_s_at) / Fold change /veh OR2T12 /// OR2T33 /// OR2T8 (11738714_s_at) / RFU VCAN (11748164_a_at) / Fold change /veh VCAN (11748164_a_at) / RFU JSRP1 (11732532_at) / Fold change /veh JSRP1 (11732532_at) / RFU KRTAP10-11 (11738290_x_at) / Fold change /veh KRTAP10-11 (11738290_x_at) / RFU MYO3A (11730013_a_at) / Fold change /veh MYO3A (11730013_a_at) / RFU EBF3 (11725865_a_at) / Fold change /veh EBF3 (11725865_a_at) / RFU CAMK2N1 (11719241_x_at) / Fold change /veh CAMK2N1 (11719241_x_at) / RFU C5orf56 (11738088_a_at) / Fold change /veh C5orf56 (11738088_a_at) / RFU OLFML3 (11715873_a_at) / Fold change /veh OLFML3 (11715873_a_at) / RFU LOC100653217 /// NTM (11731650_a_at) / Fold change /veh LOC100653217 /// NTM (11731650_a_at) / RFU MAPK11 (11762145_a_at) / Fold change /veh MAPK11 (11762145_a_at) / RFU FIZ1 (11724087_x_at) / Fold change /veh FIZ1 (11724087_x_at) / RFU OASL (11726364_x_at) / Fold change /veh OASL (11726364_x_at) / RFU SOX15 (11748057_x_at) / Fold change /veh SOX15 (11748057_x_at) / RFU CD79A (11719716_a_at) / Fold change /veh CD79A (11719716_a_at) / RFU HIST1H1D (11736915_at) / Fold change /veh HIST1H1D (11736915_at) / RFU CASKIN2 (11723855_a_at) / Fold change /veh CASKIN2 (11723855_a_at) / RFU LOC730098 (11760151_x_at) / Fold change /veh LOC730098 (11760151_x_at) / RFU OR4N2 (11742367_at) / Fold change /veh OR4N2 (11742367_at) / RFU PRRT2 (11749266_a_at) / Fold change /veh PRRT2 (11749266_a_at) / RFU SNX32 (11753110_a_at) / Fold change /veh SNX32 (11753110_a_at) / RFU CDHR5 (11726645_a_at) / Fold change /veh CDHR5 (11726645_a_at) / RFU RCAN1 (11760418_a_at) / Fold change /veh RCAN1 (11760418_a_at) / RFU FAM167A (11723789_a_at) / Fold change /veh FAM167A (11723789_a_at) / RFU FAM26E (11764081_at) / Fold change /veh FAM26E (11764081_at) / RFU ISYNA1 (11749810_s_at) / Fold change /veh ISYNA1 (11749810_s_at) / RFU ACY1 (11761880_at) / Fold change /veh ACY1 (11761880_at) / RFU 11764098_at / Fold change /veh 11764098_at / RFU SAMD14 (11745864_x_at) / Fold change /veh SAMD14 (11745864_x_at) / RFU NPB (11741838_a_at) / Fold change /veh NPB (11741838_a_at) / RFU TMPRSS6 (11731388_a_at) / Fold change /veh TMPRSS6 (11731388_a_at) / RFU KRTAP10-2 (11738614_at) / Fold change /veh KRTAP10-2 (11738614_at) / RFU ARHGAP8 /// PRR5-ARHGAP8 (11727945_x_at) / Fold change /veh ARHGAP8 /// PRR5-ARHGAP8 (11727945_x_at) / RFU KRTAP5-7 /// NADSYN1 (11734609_at) / Fold change /veh KRTAP5-7 /// NADSYN1 (11734609_at) / RFU RASL12 (11751679_a_at) / Fold change /veh RASL12 (11751679_a_at) / RFU CDKN2B (11736163_a_at) / Fold change /veh CDKN2B (11736163_a_at) / RFU PRF1 (11729649_at) / Fold change /veh PRF1 (11729649_at) / RFU, ZNF638 /// ZNF638-IT1 / Fold change vs veh, ZNF638 /// ZNF638-IT1 / RFU, PANK3 / Fold change vs veh, PANK3 / RFU, SH3YL1 / Fold change vs veh, SH3YL1 / RFU, ZEB2 / Fold change vs veh, ZEB2 / RFU, NRIP1 / Fold change vs veh, NRIP1 / RFU, PTTG1IP / Fold change vs veh, PTTG1IP / RFU, CAPN2 / Fold change vs veh, CAPN2 / RFU, MED14 / Fold change vs veh, MED14 / RFU, SNORA58 / Fold change vs veh, SNORA58 / RFU, C1orf63 / Fold change vs veh, C1orf63 / RFU, LRRFIP1 / Fold change vs veh, LRRFIP1 / RFU, NDUFAF7 / Fold change vs veh, NDUFAF7 / RFU, SLC12A2 / Fold change vs veh, SLC12A2 / RFU, IBTK / Fold change vs veh, IBTK / RFU, ESF1 / Fold change vs veh, ESF1 / Fold change vs veh, TMEM50B / RFU, TAOK1 / Fold change vs veh, TAOK1 / RFU, ACBD3 / Fold change vs veh, ACBD3 / RFU, TMA16 / Fold change vs veh, TMA16 / RFU, RWDD3 / Fold change vs veh, RWDD3 / RFU, BCAT1 / Fold change vs veh, BCAT1 / RFU, EDEM3 / Fold change vs veh, EDEM3 / RFU, TMEM33 / Fold change vs veh, TMEM33 / RFU, WDR75 / Fold change vs veh, WDR75 / RFU, AHCTF1 / Fold change vs veh, AHCTF1 / RFU, TFRC / Fold change vs veh, TFRC / RFU, ZDHHC17 / Fold change vs veh, ZDHHC17 / RFU, NOM1 / Fold change vs veh, NOM1 / RFU, ARL8B / Fold change vs veh, ARL8B / RFU, ZBTB11 / Fold change vs veh, ZBTB11 / RFU, TAMM41 / Fold change vs veh, TAMM41 / RFU, KIAA1704 /// LOC100996395 / Fold change vs veh, KIAA1704 /// LOC100996395 / RFU, ING1 / Fold change vs veh, ING1 / RFU, TRMT61B / Fold change vs veh, TRMT61B / RFU, FUBP3 / Fold change vs veh, FUBP3 / RFU, TP53 / Fold change vs veh, TP53 / RFU, TNKS2 / Fold change vs veh, TNKS2 / RFU, ZFP14 / Fold change vs veh, ZFP14 / RFU, ACTR2 / Fold change vs veh, ACTR2 / RFU, PPP3R1 / Fold change vs veh, PPP3R1 / RFU, PIK3R1 / Fold change vs veh, PIK3R1 / RFU, HNRNPA1 / Fold change vs veh, HNRNPA1 / RFU, RNF170 / Fold change vs veh, RNF170 / RFU, ZNF28 / Fold change vs veh, ZNF28 / RFU, RNGTT / Fold change vs veh, RNGTT / RFU, OGT / Fold change vs veh, OGT / RFU, BRD1 / Fold change vs veh, BRD1 / RFU, MARS / Fold change vs veh, MARS / RFU, ZNF655 / Fold change vs veh, ZNF655 / RFU, FAHD1 / Fold change vs veh, FAHD1 / RFU, BDP1 / Fold change vs veh, BDP1 / RFU, LRRCC1 / Fold change vs veh, LRRCC1 / RFU, ARID1A / Fold change vs veh, ARID1A / RFU, ZNF146 / Fold change vs veh, ZNF146 / RFU, ZNF330 / Fold change vs veh, ZNF330 / RFU, GPN3 / Fold change vs veh, GPN3 / RFU, C9orf123 / Fold change vs veh, C9orf123 / RFU, N4BP2L2 / Fold change vs veh, N4BP2L2 / RFU, ARFIP1 / Fold change vs veh, ARFIP1 / RFU, FAM179B / Fold change vs veh, FAM179B / RFU, BCL10 / Fold change vs veh, BCL10 / RFU, UHRF1BP1L / Fold change vs veh, UHRF1BP1L / RFU, BET1 / Fold change vs veh, BET1 / RFU, CNOT2 / Fold change vs veh, CNOT2 / RFU, ZNF268 / Fold change vs veh, ZNF268 / Fold change vs veh, ZNF507 / RFU, DGCR2 / Fold change vs veh, DGCR2 / RFU, WDSUB1 / Fold change vs veh, WDSUB1 / Fold change vs veh, HSP90B1 /// MIR3652 / RFU, ADSS / Fold change vs veh, ADSS / RFU, GK / Fold change vs veh, GK / RFU, ZNF148 / Fold change vs veh, ZNF148 / RFU, TAF9 / Fold change vs veh, TAF9 / RFU, SLC1A5 / Fold change vs veh, SLC1A5 / RFU, SLMO2 / Fold change vs veh, SLMO2 / RFU, ABCC4 / Fold change vs veh, ABCC4 / RFU, LOC101060439 /// RAP1B / Fold change vs veh, LOC101060439 /// RAP1B / RFU, RFX7 / Fold change vs veh, RFX7 / RFU, GTPBP10 / Fold change vs veh, GTPBP10 / RFU, CNEP1R1 / Fold change vs veh, CNEP1R1 / RFU, BIVM-ERCC5 /// ERCC5 / Fold change vs veh, BIVM-ERCC5 /// ERCC5 / RFU, ILF3 / Fold change vs veh, ILF3 / RFU 11762660_at / Fold change /veh 11762660_at / RFU VCAN (11757783_s_at) / Fold change /veh VCAN (11757783_s_at) / RFU DDX43 (11728927_at) / Fold change /veh DDX43 (11728927_at) / RFU KRT8 (11758188_x_at) / Fold change /veh KRT8 (11758188_x_at) / RFU NKD1 (11759106_at) / Fold change /veh NKD1 (11759106_at) / RFU SRD5A1 (11742802_a_at) / Fold change /veh SRD5A1 (11742802_a_at) / RFU TPSAB1 /// TPSB2 (11721975_s_at) / Fold change /veh TPSAB1 /// TPSB2 (11721975_s_at) / RFU GSTM3 (11746129_a_at) / Fold change /veh GSTM3 (11746129_a_at) / RFU IL23R (11737362_x_at) / Fold change /veh IL23R (11737362_x_at) / RFU TMEM51 (11727254_a_at) / Fold change /veh TMEM51 (11727254_a_at) / RFU PIWIL2 (11732686_x_at) / Fold change /veh PIWIL2 (11732686_x_at) / RFU ORM1 (11744905_x_at) / Fold change /veh ORM1 (11744905_x_at) / RFU CCDC152 (11743942_at) / Fold change /veh CCDC152 (11743942_at) / RFU ECM1 (11717891_a_at) / Fold change /veh ECM1 (11717891_a_at) / RFU IL23R (11748794_a_at) / Fold change /veh IL23R (11748794_a_at) / RFU TNFAIP8L3 (11732012_x_at) / Fold change /veh TNFAIP8L3 (11732012_x_at) / RFU MBOAT4 (11741988_at) / Fold change /veh MBOAT4 (11741988_at) / RFU 11764193_at / Fold change /veh 11764193_at / RFU TMEM53 (11763286_at) / Fold change /veh TMEM53 (11763286_at) / RFU MAGEB2 (11727129_at) / Fold change /veh MAGEB2 (11727129_at) / RFU TMEM200A (11744735_a_at) / Fold change /veh TMEM200A (11744735_a_at) / RFU CCDC152 (11751479_a_at) / Fold change /veh CCDC152 (11751479_a_at) / RFU FAM211A (11726209_a_at) / Fold change /veh FAM211A (11726209_a_at) / RFU RGS16 (11746705_a_at) / Fold change /veh RGS16 (11746705_a_at) / RFU VCAN (11755009_s_at) / Fold change /veh VCAN (11755009_s_at) / RFU RHOB (11743442_s_at) / Fold change /veh RHOB (11743442_s_at) / RFU RGS16 (11720943_a_at) / Fold change /veh RGS16 (11720943_a_at) / RFU RGS16 (11720944_at) / Fold change /veh RGS16 (11720944_at) / RFU, VPS4B / Fold change vs veh, VPS4B / RFU, CREB1 / Fold change vs veh, CREB1 / RFU, DNAJC13 / Fold change vs veh, DNAJC13 / RFU, GNAQ / Fold change vs veh, GNAQ / RFU, CDK5R1 / Fold change vs veh, CDK5R1 / RFU, ZRANB3 / Fold change vs veh, ZRANB3 / RFU, CUL4A / Fold change vs veh, CUL4A / RFU, CCNY / Fold change vs veh, CCNY / RFU, UFL1 / Fold change vs veh, UFL1 / RFU, COG3 / Fold change vs veh, COG3 / RFU, DIAPH2 / Fold change vs veh, DIAPH2 / RFU, SKA2 / Fold change vs veh, SKA2 / RFU, AFF3 / Fold change vs veh, AFF3 / RFU, LMF1 / Fold change vs veh, LMF1 / RFU, IPO11 / Fold change vs veh, IPO11 / RFU, DFFB / Fold change vs veh, DFFB / RFU, FOXP1 / Fold change vs veh, FOXP1 / RFU, CARD8 / Fold change vs veh, CARD8 / RFU, STRN3 / Fold change vs veh, STRN3 / RFU, ADK / Fold change vs veh, ADK / RFU, RASSF2 / Fold change vs veh, RASSF2 / RFU, WIPF1 / Fold change vs veh, WIPF1 / RFU, LARP1B / Fold change vs veh, LARP1B / RFU, RASA1 / Fold change vs veh, RASA1 / RFU, RB1 / Fold change vs veh, RB1 / RFU, PPFIA1 / Fold change vs veh, PPFIA1 / RFU, MAT2A / Fold change vs veh, MAT2A / RFU, CCT5 / Fold change vs veh, CCT5 / RFU, WDR92 / Fold change vs veh, WDR92 / RFU, CUX1 / Fold change vs veh, CUX1 / RFU, TTC7A / Fold change vs veh, TTC7A / RFU, TMEM135 / Fold change vs veh, TMEM135 / RFU, DEPTOR / Fold change vs veh, DEPTOR / RFU, CPM / Fold change vs veh, CPM / RFU, DNAJB6 / Fold change vs veh, DNAJB6 / RFU, CACNA2D3 / Fold change vs veh, CACNA2D3 / RFU, DTX4 / Fold change vs veh, DTX4 / RFU, TFCP2 / Fold change vs veh, TFCP2 / RFU, GMCL1 /// GMCL1P1 / Fold change vs veh, GMCL1 /// GMCL1P1 / RFU, AEBP2 / Fold change vs veh, AEBP2 / RFU, SNHG1 /// SNORD22 /// SNORD25 /// SNORD26 /// SNORD27 /// SNORD28 /// SNORD29 /// SNORD31 / Fold change vs veh, SNHG1 /// SNORD22 /// SNORD25 /// SNORD26 /// SNORD27 /// SNORD28 /// SNORD29 /// SNORD31 / Fold change (Aza/veh), C12orf56 (ProbeSet 11735607_a_at) / Fold change (ACY-1035/veh), C12orf56 (ProbeSet 11735607_a_at) / Fold change (Aza/veh), FGFR1OP (ProbeSet 11751329_s_at) / Fold change (ACY-1035/veh), FGFR1OP (ProbeSet 11751329_s_at) / Fold change (Aza/veh), VPS36 (ProbeSet 11739960_a_at) / Fold change (ACY-1035/veh), VPS36 (ProbeSet 11739960_a_at) / RFU SYPL1 (11715823_x_at) / Fold change /veh SYPL1 (11715823_x_at) / RFU IGFBP7 (11715501_s_at) / Fold change /veh IGFBP7 (11715501_s_at) / RFU REEP3 (11722064_at) / Fold change /veh REEP3 (11722064_at) / RFU IGLL1 (11728026_x_at) / Fold change /veh IGLL1 (11728026_x_at): dose or concentration left out as unconfirmed. The settings on record: ProbeSet 11750457_a_at; LIST B.

The structures appear in SMILES notation.

With `Nc1ncn([C@@H]2O[C@H](CO)[C@@H](O)[C@H]2O)c(=O)n1` [azacitidine], the “Fold change vs veh, GTPBP10” value is 0.84.
